Measured values as given in patent US11123354B2, “Method for the treatment of osteoarthritis” (ABIOGEN PHARMA S.P.A., priority 2016, dated 2021).

Key:
[1] = system: CTX-I (C-telopeptide of type I collagen); assay: CTX-I final serum concentration, MIA-induced OA rats, weekly treatment; assay type: in vivo, Sprague Dawley rats
Protocol: As an experimental model of OA induction, one involving the intra-articular administration of MIA (monosodium iodoacetate) was used.
The rats were anesthetized by a gaseous mixture of isoflurane and oxygen, and maintained in a supine position. Once the infrapatellar ligament was identified by touch, a single intra-articular injection of monosodium iodoacetate (MIA) was performed in the right knee, after having shaved the skin of the area, while keeping the joint slightly flexed. The amount of MIA injected was equal to 1 mg dissolved in 50 μl of saline solution, having a pH of about 4.5, as measured just before administration. The joint of the left knee was instead injected with 50 μl of saline solution alone, and this represented the internal control.
The treatment involved 4 weekly administrations of sodium chlodronate, followed by one week of follow-up.
The study included 8 treatment groups, each consisting of 10 male Sprague Dawley rats, specifically five treatment groups consisting of OA rats, on which the chlodronate doses of 2, 10, 20, 30, and 40 mg/ml, corresponding to 0.1, 0.5, 1, 1.5, and 2 mg/rat, were tested, and the remaining three groups represented by untreated OA rats, operated but untreated Sham rats, and rats administered only with placebo at pH 4.5.
During the treatment period, the animals were regularly checked in relation to the increase in body mass, food intake, and general health conditions. Clinical and hematological analyses were performed at the end of the study. The difference between the size of the edema in the two inflamed knees for all the observation groups, the final serum concentration of CTX-I (C-telopeptide of type I collagen), as a marker of bone turnover, and the final serum concentration of CTX-II (C-telopeptide of type II collagen), as a marker of cartilage turnover were investigated.
Considering that CTX-I (C-telopeptide of type I collagen) is a bone turnover marker and its concentration levels are proportional to the osteoclastic activity, the measurement of CTX-I final serum concentration value is a measure of the treatment efficacy.

[2] = system: patients with osteoarthritis of the knee; conditions: 20 patients, IA 0.9 mg on days 1, 3, 7, 10, 14 and 21; cited from earlier work
[3] = pH, osmolality and density of unitary dosage form aqueous solutions; assay type: physicochemical; conditions: aqueous solution
Protocol: Osmolality values were determined according to USP, chapter […] under the heading “Osmolality and Osmolarity”.
Certain compositions of the invention were prepared in unitary dosage form, in the form of an aqueous solution, for weekly, biweekly or monthly administration, comprising sodium chlodronate in tetrahydrate form, whose quali-quantitative compositions and pH, osmolality, and density values, are shown in Table 8 below.
As it is apparent from the table, all the compositions prepared had particularly high osmolality values. Osmolalities were determined by GONOTEC Osmometer, OSMOMAT 3000-D model, serial number 3000150264 according to USP, chapter 785 under the title “Osmolality and Osmolarity”.

Sprague Dawley rats = assay: Local tolerability of repeated intra-articular injections; assay type: in vivo
Protocol: With the aim to determine also the maximum dosages of chlodronate administrable in a single intra-articular injection, the local tolerability of intra-articular injections of sodium chlodronate, after repeated administration in the right knee of male and female Sprague Dawley rats, was investigated in this study.
Groups consisting of 5 male rats and 5 female rats each were subjected to intra-articular administration of aqueous solutions comprising 4, 14 and 40 mg/ml of sodium chlodronate (corresponding to dosages of 0.2, 0.7, and 2 mg/rat).
Each animal received a total of 12 intra-articular injections of chlodronate or placebo, administered as 3 injections per week (on Monday, Wednesday, and Friday) for 4 consecutive weeks. For the high dose group and the control group, the relative control groups with the same numerosity as the main groups were also provided.
During the treatment period, the animals were regularly checked in relation to the increase in body mass, food intake, and general health conditions.
At the end of the study, hematological analyses, chemical-clinical analyses, urino-analysis, and necropsy were performed.

[4] = 5.00 mg sodium chlodronate per unitary dosage form (1 ml)
[5] = 10.00 mg sodium chlodronate per unitary dosage form (1 ml)
[6] = 20.00 mg sodium chlodronate per unitary dosage form (1 ml)
[7] = 30.00 mg sodium chlodronate per unitary dosage form (1 ml)
[8] = 40.00 mg sodium chlodronate per unitary dosage form (1 ml)
[9] = 4, 14 and 40 mg/ml, 12 i.a. injections (3 per week, 4 weeks)
[10] = repeated intra-articular administration, rats

Which “CTX-I Value” ([1]; 2 mg/mL weekly i.a.) does the source give for `O=P([O-])(O)C(Cl)(Cl)P(=O)([O-])O.[Na+].[Na+]` [Sodium Chlodronate, sodium chlodronate] here?
Its value is 4.77 pg/mL.

And the “CTX-I Value” ([1]; 10 mg/mL weekly i.a.)?
Its value is 4.87 pg/mL.

And the “CTX-I Value” ([1]; 20 mg/mL weekly i.a.)?
The value was 4.6 pg/mL.

What about the “CTX-I Value” ([1]; 30 mg/mL weekly i.a.) of the same compound?
The value was 4.36 pg/mL.

What about the “CTX-I Value” ([1]; 40 mg/mL weekly i.a.) of the same compound?
Its value is 4.16 pg/mL.

And the “effect on pain symptoms (spontaneous pain and pain in movement)” value [2]?
Its value is “marked positive effect”.

What about the “Density” value [3, 4] of the same compound?
The value was 1.014 g/mL.

What about the “Osmolality (mOsm/Kg)” value [3, 4] of the same compound?
The value was 395 mOsm/Kg.

What about the pH [3, 4] of the same compound?
The pH was 4.6.

And the “Density” value [3, 5]?
The value was 1.016 g/mL.

What about the “Osmolality (mOsm/Kg)” value [3, 5] of the same compound?
Its value is 400 mOsm/Kg.

And the pH [3, 5]?
The pH was 4.5.

And the “Density” value [3, 6]?
Its value is 1.021 g/mL.

What about the “Osmolality (mOsm/Kg)” value [3, 6] of the same compound?
The value was 388 mOsm/Kg.

And the pH [3, 6]?
The pH was 4.4.

And the “Density” value [3, 7]?
The value was 1.027 g/mL.

And the “Osmolality (mOsm/Kg)” value [3, 7]?
Its value is 408 mOsm/Kg.

And the pH [3, 7]?
Its pH is 4.4.

And the “Density” value [3, 8]?
Its value is 1.032 g/mL.

And the “Osmolality (mOsm/Kg)” value [3, 8]?
The value was 413 mOsm/Kg.

What about the pH [3, 8] of the same compound?
The pH was 4.5.

And the “hematological analyses with differential leucocyte count and urinary analyses” value (Sprague Dawley rats; [9])?
Its value is “no alterations due to the treatment”.

And the necropsy examination (Sprague Dawley rats; [9])?
The necropsy examination was “No abnormalities”.

And the “body weight and food consumption” value (Sprague Dawley rats; 4, 14 and 40 mg/ml, 12 i.a. injections (3 per week, 4 weeks), all animals)?
Its value is “normal”.

And the “mortality, behavioral or clinical changes related to the treatment” value (Sprague Dawley rats; 4, 14 and 40 mg/ml, 12 i.a. injections (3 per week, 4 weeks), male and female rats)?
Its value is “neither mortality nor behavioral or clinical changes”.

And the “renal effect / electrolyte serum concentration” value (Sprague Dawley rats; females, highest dose (40 mg/ml, 2 mg/rat), 12 i.a. injections)?
Its value is “slight renal suffering with an increase in electrolyte serum concentration”.

And the “ALP and ALT values in serum (initial hepatic suffering)” value (Sprague Dawley rats; males, highest dose (40 mg/ml, 2 mg/rat), 12 i.a. injections)?
The value was “significant increase”.

And the “Maximum Tolerated Dose (MTD)” value (Sprague Dawley rats; [10])?
The value was 40 mg/mL.

And the “NOAEL dose (No Observed Adverse Effect Level)” value (Sprague Dawley rats; [10])?
The value was 14 mg/mL.
